The values below come from PubChem BioAssay AID517 (Columbia University Molecular Screening Center, 2006).

Broadly, the IC50 is the point on the concentration scale where inhibition reaches its midpoint.

Calls of active or inactive are those of the source.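 The calls were made as follows: active = activity score of 15 or more, from fitted potency or summed per-dose inhibition z-scores, roughly IC50 of 5 µM; inactive = the rest.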

In the experiment the test system is HUVEC TNFalpha-induced E-selectin immunofluorescence imaging. Briefly: E-selectin expression inhibitors, dose response, confirmation, imaging, HUVEC, immunofluorescence, TNFalpha stimulation (AID 517).
Consider `CC[C@H]1CN2CCc3cc(OC)c(OC)cc3[C@@H]2C[C@@H]1C[C@H]1NCCc2cc(OC)c(OC)cc21`, for which the IC50 was 0.08 µM.
In the case of `O=C1c2ccccc2S(=O)(=O)N1Cc1nnc(-c2ccccc2Br)o1`, the IC50 is > 8 µM (inactive).
Turning to `CCn1c(=O)n(CC(=O)N(C)Cc2ccccc2)c(=O)c2ccccc21`, the IC50 was > 8 µM (inactive).
On to `CN(C(=O)c1ccc2c(=O)n3c(nc2c1)CCCCC3)c1ccccc1`, for which the IC50 was > 8 µM (inactive).
For `C=CCNc1nc(C)nc(OC)n1`, the IC50 is > 8 µM (inactive).
As for `COc1ccc(C(=O)CSc2nnc(C3CCCCC3)n2N)c(OC)c1`, the IC50 was > 8 µM (inactive).
Consider `COC(=O)C1=C(C)NC(C)=C(C(=O)OC)C1C(=O)OC1CCCCC1=O` (stereo unspecified), for which the IC50 was > 8 µM (inactive).
The figure for `COc1ccccc1OCC(O)COC(N)=O` (stereo unspecified) is > 8 µM (inactive).
Regarding `N#CCCn1cnc2ccccc21`, the IC50 was > 8 µM (inactive).
For the molecule `O=C1CC(N2CCN(c3cccc(C(F)(F)F)c3)CC2)C(=O)N1c1ccccc1` (stereo unspecified), the IC50 is > 8 µM (inactive).
Take `CC1CCN(C(=O)CSc2nc3ccccc3[nH]2)CC1`: the IC50 was > 8 µM (inactive).
Take `CC1(C)CC(=O)C(C=NC(CCC(N)=O)C(=O)O)=C(O)C1` (stereo unspecified): the IC50 was > 8 µM (inactive).
On to `Cc1ccc(C)c(-n2c(Cc3cc(=O)[nH]c(=O)[nH]3)nnc2SCC(=O)NCc2ccco2)c1`, for which the IC50 is > 8 µM (inactive).
For the molecule `COCCn1c(=O)[nH]c2cc(C(=O)NCc3cccnc3)ccc2c1=O`, the IC50 is > 8 µM (inactive).
Consider `O=C(c1ccc2c3c(cccc13)C(=O)N(O)C2=O)N1CCCCC1`, for which the IC50 is > 8 µM (inactive).
Turning to `Cc1cc(NC(=O)COC(=O)c2cccc(S(=O)(=O)N3CCOCC3)c2)no1`, the IC50 is > 8 µM (inactive).
Turning to `CN(Cc1ccccc1)Cc1nc2c([nH]1)c(=O)[nH]c(=O)n2C`, the IC50 was > 8 µM (inactive).
Consider `C=CS(=O)(=O)c1ccc(Oc2ccc(S(=O)(=O)C=C)cc2)cc1`, for which the IC50 is 0.55 µM.
Regarding `Nc1c2c(nc3ccccc13)N(c1ccccc1)CC2`, the IC50 is > 8 µM (inactive).
For the molecule `Cc1ccc(Nc2nc(N)nc(CN3CCCCCC3)n2)cc1`, the IC50 was > 8 µM (inactive).
Next, `Cn1cccc1Cc1nnc(SCC(=O)N2CCOCC2)n1-c1ccc(F)cc1`: > 8 µM (inactive); `Cc1ccc(SC(C)c2nc(-c3ccccc3)no2)cc1` (stereo unspecified): > 8 µM (inactive); `CC(C)C(C(=O)Nc1ccc2c(c1)OCO2)N1C(=O)c2ccccc2C1=O` (stereo unspecified): > 8 µM (inactive).
Turning to `Fc1cc(F)c(F)c(SCCc2ccncc2)c1F`, the IC50 was > 8 µM (inactive).
For `O=C(OCc1ccc2c(c1)OCO2)c1ccc(S(=O)(=O)N2CCCCC2)cc1`, the IC50 is > 8 µM (inactive).
As to `CCOC(=O)C1CCCN(C(=O)c2sc3nc(-c4ccccc4)cn3c2C)C1` (stereo unspecified), the IC50 was > 8 µM (inactive).
Consider `COC(=O)CCC(=O)Nc1cccc(Br)c1`, for which the IC50 is > 8 µM (inactive).
Next, `COc1ccccc1-c1c(C)nn2c(C)c(C(C)=O)cnc12`: > 8 µM (inactive); `CC1Oc2ccccc2N(CC(=O)N(Cc2ccccc2)Cc2ccccn2)C1=O` (stereo unspecified): > 8 µM (inactive).
In the case of `O=C(NCCN1CCOCC1)c1ccc(=O)oc1`, the IC50 was > 8 µM (inactive).
Turning to `CCCCSc1nc(O)c(C2OC(=O)c3c2ccc(OC)c3OC)c(=O)n1C` (stereo unspecified), the IC50 is > 8 µM (inactive).
As to `COc1ccc(CCNC(=O)C2=COCCO2)cc1`, the IC50 is > 8 µM (inactive).
Regarding `C[C@H]1CCC/C=C/C2C[C@H](O)CC2[C@H](O)/C=C/C(=O)O1` (stereo partly specified), the IC50 is below 0.01 µM.
Turning to `CC(C)Cn1c(=O)c(C(=O)Nc2ccccc2S(N)(=O)=O)c(O)c2ccccc21`, the IC50 is > 8 µM (inactive).
Consider `COc1ccc(-c2nnc(-c3cccs3)o2)cc1OC`, for which the IC50 is > 8 µM (inactive).
On to `Cc1ccc(N=C2NC(=O)CS2)c(C)c1`, for which the IC50 is > 8 µM (inactive).
`O=C(COn1nnc2ccc(C(F)(F)F)cc21)Nc1nnc(-c2ccccc2)o1`: the IC50 is > 8 µM (inactive).
For the molecule `O=C(Cc1cccs1)NCc1ccc(F)cc1`, the IC50 was > 8 µM (inactive).
Next, `Cc1cc2oc(=O)cc(CN3CCCCC3)c2cc1C(C)C`: > 8 µM (inactive); `O=C1COc2ccc(C(=O)NCc3ccco3)cc2N1`: > 8 µM (inactive).
As to `CC1CN(C(=O)CSc2nnc(-c3ccncc3)n2-c2ccccc2)CC(C)O1` (stereo unspecified), the IC50 was > 8 µM (inactive).
On to `O=C(Nc1ccc(SC(F)F)cc1)c1ccc2nccnc2c1`, for which the IC50 was > 8 µM (inactive).
Regarding `CCN(CC)S(=O)(=O)c1ccc2[nH]cc(C(=O)NCCC3=CCCCC3)c(=O)c2c1`, the IC50 is > 8 µM (inactive).
The figure for `CC1CCN(CCC(=O)Nc2ccc(Br)cc2)CC1` is > 8 µM (inactive).
`COc1ccc(CCN2C(=O)CC(N3CCN(S(=O)(=O)c4ccccc4)CC3)C2=O)cc1` (stereo unspecified): the IC50 is > 8 µM (inactive).
For the molecule `O=C(NCCCN1CCCC1=O)c1cncc(Br)c1`, the IC50 is > 8 µM (inactive).
For `C=CCn1c(-c2ccccc2)n[nH]c1=S`, the IC50 was > 8 µM (inactive).
With `Cc1oc(-c2ccccc2Cl)nc1CSCC(=O)N1CCCC1`, the IC50 is > 8 µM (inactive).
Consider `OC1C[N+]2(CCCCC2)C1`, for which the IC50 was > 8 µM (inactive).
On to `COc1ccc(CCn2c(O)c(C=NCc3cccnc3)c(=O)[nH]c2=O)cc1OC`, for which the IC50 was > 8 µM (inactive).
As to `O=c1cc(NCc2ccccc2)nc2n1CCCS2`, the IC50 was > 8 µM (inactive).
On to `Cc1c(O)c(CN2CCCC2)cc2c1oc(=O)c1ccccc12`, for which the IC50 is > 8 µM (inactive).
In the case of `COc1cccc2c1C(=O)c1c(O)c3c(c(O)c1C2=O)C[C@@](O)(C(C)=O)C[C@@H]3O[C@H]1C[C@H](N)[C@H](O)[C@H](C)O1`, the 50% inhibitory concentration (IC50) is 0.63 µM.
As for `COc1ccc2c(C)nc(Nc3nc(C)cc(C)n3)nc2c1`, the IC50 is > 8 µM (inactive).
In the case of `CCOC(=O)c1sc(NC(=O)CSc2n[nH]c(-c3ccccc3)n2)c(C#N)c1C`, the IC50 is > 8 µM (inactive).
Take `CCOC(=O)C1CCCN(C(=O)c2cc3c(=O)n4cccc(C)c4nc3n2C)C1` (stereo unspecified): the IC50 was > 8 µM (inactive).
In the case of `Cc1cnc(NC(=O)CSc2nc3ccccc3c(=O)[nH]2)s1`, the IC50 is > 8 µM (inactive).
Consider `CC(=O)Nc1sc2c(c1CN1CCN(c3ccccn3)CC1)CCCC2`, for which the IC50 was > 8 µM (inactive).
As for `O=S1(=O)C=C(Sc2nc3ccccc3s2)c2ccccc21`, the IC50 was 1.85 µM.
On to `CN(CCc1ccccn1)c1ncnc2[nH]ncc12`, for which the IC50 was > 8 µM (inactive).
`Cc1cc(N2C(=O)C3C4C=CC(C4)C3C2=O)ccc1Br` (stereo unspecified): the IC50 is > 8 µM (inactive).
Turning to `N#Cc1c(NCc2ccccc2)ccnc1NCc1cccnc1`, the IC50 is > 8 µM (inactive).
As for `COc1ccc(NC(=O)CSc2nnc(-c3ccccc3C)n2C)cc1`, the IC50 was > 8 µM (inactive).
Turning to `COc1ccc(Cc2nc3ccc(S(N)(=O)=O)cc3[nH]2)cc1OC`, the IC50 was > 8 µM (inactive).
Next, `Cc1nnc(SCCn2c(N3CC(C)CC(C)C3)nc3c2c(=O)n(C)c(=O)n3C)s1` (stereo unspecified): > 8 µM (inactive); `Cc1cc(NC(=O)CS(=O)(=O)c2cn(Cc3ccccc3Cl)c3ccccc23)no1`: > 8 µM (inactive).
On to `O=C(Nc1ccc2[nH]c3c(c2c1)CCCC3)c1ccco1`, for which the IC50 is > 8 µM (inactive).
As for `Cc1cc2c(cc1C)-c1nnnn1C(C)(C)C2`, the IC50 is > 8 µM (inactive).
`COCCNC(=O)C1CCCN(c2ncccn2)C1` (stereo unspecified): the IC50 was > 8 µM (inactive).
For the molecule `FC(F)Oc1ccc(-c2csc(Cc3nnc4n3CCCCC4)n2)cc1`, the IC50 is > 8 µM (inactive).
In the case of `O=C(O)C1C2CCC(C2)C1C(=O)NCCCn1ccnc1` (stereo unspecified), the IC50 is > 8 µM (inactive).
The figure for `Cc1c(NC2=NC3(CCCCC3)Cc3ccccc32)c(=O)n(-c2ccccc2)n1C` is > 8 µM (inactive).
`Cc1cc(C)n(C2=NS(=O)(=O)c3ccccc32)n1`: the IC50 was > 8 µM (inactive).
Next, `O=C(CSc1ccc(-c2ccccc2)nn1)N1CCOCC1`: > 8 µM (inactive); `FC(F)Oc1cccc2cccnc12`: > 8 µM (inactive); `Cc1ccc(O)c(C(=O)c2cc(C#N)c(=O)n(CC3CCCO3)c2)c1` (stereo unspecified): > 8 µM (inactive).
`O=C1CC(c2ccc(S(=O)(=O)N3CCN(c4ccccc4)CC3)cc2)CN1` (stereo unspecified): the IC50 was > 8 µM (inactive).
For the molecule `CC1=CC=CC2=NC(=O)CC(C)(C(=O)N(CC(=O)NC(C)C)C3CCCC3)N12` (stereo unspecified), the IC50 was > 8 µM (inactive).
For `CCN(CC)CCCNC(=O)c1cn(C)c2ccc(S(=O)(=O)N(C)C)cc2c1=O`, the IC50 was > 8 µM (inactive).
`O=C(Nc1cccc(F)c1)c1ccc2c(c1)OCO2`: the IC50 was > 8 µM (inactive).
The figure for `COc1ccc(Cl)cc1NC(=O)CSc1nncn1-c1cccnc1` is > 8 µM (inactive); for `Cc1ccc2[nH]c(=O)c(CN(CCc3ccccc3)Cc3nnnn3CC3CCCO3)cc2c1` (stereo unspecified) it is > 8 µM (inactive).
On to `O=c1c2ccccc2nc(SCc2cn3ccsc3n2)n1-c1ccc(F)cc1`, for which the IC50 was > 8 µM (inactive).
The figure for `C=CCOC(=O)COc1cc(C)cc2oc(=O)c3c(c12)CCC3` is > 8 µM (inactive); for `CCN(CC(=O)NC(=O)NCc1ccco1)Cc1nc2ccccc2c(=O)[nH]1` it is > 8 µM (inactive).
As for `CCn1c(=N)n(CC(=O)c2ccco2)c2ccccc21`, the IC50 is > 8 µM (inactive).
For `COc1ccc(OC(=O)c2cc3ccccc3o2)cc1`, the IC50 is > 8 µM (inactive).
Consider `O=C(O)CC1CCCC(c2ccccc2)C1=O` (stereo unspecified), for which the IC50 was > 8 µM (inactive).
On to `Cc1nc2ccccc2nc1OCC(=O)Nc1cc(C(F)(F)F)ccc1N1CCOCC1`, for which the IC50 was > 8 µM (inactive).
The figure for `COc1cccc2c1C(=O)c1c(O)c3c(c(O)c1C2=O)C[C@@](O)(C(=O)CO)C[C@@H]3O[C@H]1C[C@H](N)[C@H](O)[C@H](C)O1` is 3.2 µM; for `COc1ccc(OC)c2[nH]c(=O)c(CCNC(=O)CC(C)C)cc12` it is > 8 µM (inactive).
